System: Adult, male Wistar rats
Assay: Sleep-wakefulness monitoring (EEG/EMG, SCORE-2000) in rats: NREM sleep cumulation and longest uninterrupted sleep bout
Format: in vivo, rat
Details: for LUSB (longest uninterrupted sleep bout each hour, mean adjusted for baseline and vehicle control) / NREM (mean maximum cumulation of NREM sleep over baseline, adjusted for baseline and vehicle control): intraperitoneal bolus at CT-18, male Wistar rats; for Increase of LUSB versus vehicle control (FIGS. 4-6), in words / Increase of NREM sleep cumulation versus vehicle control (FIGS. 1-3), in words: rats
Method: Sleep-wakefulness, locomotor activity and body temperature were monitored in vivo with the disclosed racemic sleep-inducing agent 1 and its R and S isomers 1-R and 1-S. Adult, male Wistar rats (250 g at time of surgery, Charles River Laboratories, Wilmington Mass.) were anesthetized (Nembutal, 62 mg/kg) and surgically prepared with a cranial implant to permit chronic electro-encephalogram (EEG) and electromyogram (EMG) recording. Body temperature and locomotor activity were monitored via a miniature transmitter (Mini-Mitter, Bend, Oreg.) surgically placed in the abdomen. The cranial implant consisted of stainless steel screws (two frontal [+3.2 AP from bregma, ±2.0 ML] and two occipital [−6.9 AP, ±5.5 ML]) for EEG recording. Two Teflon®-coated stainless steel wires were positioned under the nuchal trapezoid muscles for EMG recording. All leads were soldered to a miniature connector prior to surgery, and gas sterilized in ethylene oxide. The implant assembly was affixed to the skull with dental acrylic. A minimum of three weeks was allowed for surgical recovery.
Each rat was permanently housed in its own individual recording cage located within separate, ventilated compartments of custom- designed stainless steel cabinets. Each cage was enhanced with a filter-top riser and low-torque swivel-commutator. Food and water were available ad libitum. A 24-hr light-dark cycle (12 hours light, 12 hours dark) was maintained throughout the study using 4-watt fluorescent bulbs 5 cm from the cage. Animals were undisturbed for at least 48 hours before and after treatments.
Sleep and wakefulness were determined using “SCORE-2000™” (Hypnion, Worcester, Mass.)—an internet-based sleep-wake and physiological monitoring system. The system monitored amplified EEG (bandpass 1-30 Hz; digitization rate 400 Hz), integrated EMG (bandpass 10-100 Hz), body temperature and non-specific locomotor activity (LMA) via telemetry, and drinking activity, continuously and simultaneously. Arousal states were classified on-line as non-REM (NREM) sleep, REM sleep, wake, or theta-dominated wake every 10 seconds using EEG feature extraction and pattern-matching algorithms. […] The classification algorithm used individually-taught EEG-arousal-state templates, plus EMG criteria to differentiate REM sleep from theta-dominated wakefulness, plus behavior-dependent contextual rules (e.g., if the animal was drinking, it is awake). Drinking and locomotor activity (LMA) were recorded as discrete events every 10 seconds, while body temperature was recorded each minute. Locomotor activity was detected by a telemetry receiver (Mini-Mitter) beneath the cage. Telemetry measures (LMA and body temperature) were not part of the scoring algorithm; thus, sleep-scoring and telemetry data were independent measures.
Compounds were administered at CT-18, the peak of the activity-dominated period, in order to ensure prior wakefulness was sufficient to interact positively with hypnotic-drug effects, and sufficient time was allowed to view the time course of the treatment effect before lights-on (6 hours post-treatment). Compounds were suspended in sterile 0.25% or 0.5% methylcellulose (2 ml/kg). Treatments were administered as an intraperitoneal bolus.
A parallel group study design was employed. Vehicle controls were drawn from a large pool (N>200): a subset of the pooled vehicle controls was selected, based on computerized matching with the 24-hour pre-treatment baseline of the active treatment group.
In Table 1, N is the number of trials, and NREM and LUSB values are means adjusted for both baseline and vehicle control values. NREM represents the mean maximum cumulation of NREM sleep in minutes over baseline as a function of time in hours after treatment with the compound or the vehicle control; LUSB is the longest uninterrupted sleep bout each hour in minutes as a function of circadian time.

Compound	LUSB (longest uninterrupted sleep bout each hour, mean adjusted for baseline and vehicle control) (10 mg/kg) [min]	NREM (mean maximum cumulation of NREM sleep over baseline, adjusted for baseline and vehicle control) (10 mg/kg) [min]	LUSB (longest uninterrupted sleep bout each hour, mean adjusted for baseline and vehicle control) (30 mg/kg) [min]	NREM (mean maximum cumulation of NREM sleep over baseline, adjusted for baseline and vehicle control) (30 mg/kg) [min]	Increase of LUSB versus vehicle control (FIGS. 4-6), in words (30 mg/kg)	Increase of NREM sleep cumulation versus vehicle control (FIGS. 1-3), in words (30 mg/kg)	LUSB (longest uninterrupted sleep bout each hour, mean adjusted for baseline and vehicle control) (45 mg/kg) [min]	NREM (mean maximum cumulation of NREM sleep over baseline, adjusted for baseline and vehicle control) (45 mg/kg) [min]	LUSB (longest uninterrupted sleep bout each hour, mean adjusted for baseline and vehicle control) (3 mg/kg) [min]	NREM (mean maximum cumulation of NREM sleep over baseline, adjusted for baseline and vehicle control) (3 mg/kg) [min]	Increase of NREM sleep cumulation versus vehicle control (FIGS. 1-3), in words (10 mg/kg)
O=C(O)[C@@H]1CCCN(CCC=C2c3ccccc3CCc3ccccc32)C1 [Compound 1-R]	2.5	3.4	5.8	20.7	effective at increasing LUSB	effective at increasing NREM cumulation	10.3	31.8			
O=C(O)C1CCCN(CCC=C2c3ccccc3CCc3ccccc32)C1 (racemic) [Compound 1]	2.8	24.8	4.9	35.4	effective at increasing LUSB	effective at increasing NREM cumulation			4.7	15	particularly effective
O=C(O)[C@H]1CCCN(CCC=C2c3ccccc3CCc3ccccc32)C1 [Compound 1-S]	5.5	31.9	9.7	31.8	effective at increasing LUSB	effective at increasing NREM cumulation					particularly effective

— patent US20070066570A1, “Methods for treating sleep disorders” (priority 2003, published 2007)
